Experimental data from patent publication US8900444B2, “Switchable hydrophilicity solvents and methods of use thereof” (Queen's University at Kingston, priority 2009, dated 2014).

Columns and labels:
[1] = Water miscibility of amidines in neutral form and after CO2; format: physicochemical
From the text: This represents relatively hydrophilic character. The amidines A-D are unsatisfactory for use as a switchable hydrophilicity solvent because they are insufficiently hydrophobic in their amidine form. […] Since such amidines are not separable from water after switching from their hydrophilic to hydrophobic forms, they are unsuitable for use in the present invention.
Exposure of a 1:1 by volume mixture of two immiscible liquids, hydrophobic PA and water, to gaseous CO2, at 1 atmosphere, caused a conversion to a hydrophilic liquid comprising an aqueous solution of N,N,N′-tripropylbutyramidinium bicarbonate (PAB) (see FIG. 1 for the chemical scheme in which R^1-4 are propyl). NMR data for the PA/water system is presented in FIGS. 4 and 5 and IR data in FIG. 6. FIGS. 4A and 5A show ^1H and ^13C NMR data for PA. After switching, the detection of the N,N,N′-tripropylbutyramidinium bicarbonate salt was confirmed by ^1H and ^13C NMR as shown in FIGS. 4B and 5B.
Similarly, exposure of a 1:1 by volume mixture of two immiscible liquids, hydrophobic BA and water, to gaseous CO2, at 1 atmosphere, caused a conversion to a hydrophilic liquid comprising an aqueous solution of N,N,N′-tributylpentanamidinium bicarbonate (BAB) (see FIG. 1 for the chemical scheme in which R^1-4 are butyl). NMR data for the […] is presented in FIGS. 7 and 8 and IR data in FIG. 9. […] show ^1H and ^13C NMR data for BA. After switching, the detection of the N,N,N′-tributylpentanamidinium bicarbonate salt was confirmed by ^1H and ^13C NMR as shown in FIGS. 6B and 7B. The hydrophilic aqueous solution of BAB was converted back into hydrophobic BA and water by heating at 80° C.

[2] = Polarity study with solvatochromatic dye Nile Red (Example 3); format: physicochemical; conditions: water-saturated BA or aqueous solution of BAB
Method: The maximum wavelength of absorption, λmax, of a switchable hydrophilicity solvent, N,N,N′-tributylpentanamidine (BA), was analyzed in its hydrophobic and hydrophilic forms using the solvatochromatic dye, Nile Red. A 1 Dram vial was prepared containing 1 mL of distilled water to which 1 mL of BA was added. […] This ensured saturation of the BA phase with water. The top phase comprising the BA liquid was pipetted into a quartz cuvette (Semi-Micro Cells, Self Masking Black Walls Spectrosil® Quartz, Starna Cells, Atascadero, Calif., USA) and 1 mg of Nile Red was added, to provide a bright orange-magenta solution. The ultraviolet absorbance spectrum was acquired on an Agilent Technologies ultraviolet/visible spectrometer 50-60 Hz with UV-Visible Chemstation software. The λmax was 510 nm. Distilled water (1.0 mL) was then added to the quartz cuvette and carbon dioxide was slowly bubbled into the mixture for 1 hour to switch the BA to its ionic form, N,N,N′-tributylpentanamidinium bicarbonate (BAB), after which the homogenous mixture turned purple. The ultraviolet absorbance spectrum of the aqueous solution of the dye and ionic salt was then acquired as discussed in the previous paragraph. The λmax was 570 nm.

With `CCCCN=C(CCCC)N(CCCC)CCCC` [BA, N,N,N′-tributylpentanamidine] the “miscibility with water after CO2 trigger (amidinium bicarbonate form)” value ([1]; CO2 and water) was “became miscible”, the “miscibility with water, neutral (unprotonated) amidine form” value ([1]; no CO2) was “immiscible with water” and the “maximum wavelength of absorption (λmax) of Nile Red” value [2] was 510 nm.
